Laboratory results reported in patent US20250250298A1, “ONCOLYTIC PEPTIDE AND USE THEREOF” (Rise Biopharmaceuticals Inc., priority 2022, published 2025).
Where a SMILES comes first, the peptide text is derived from it.

Legend:
[1] = test system: C9 (Human oral cancer cell); assay: MTT cytotoxicity, C9; type: cell-based; conditions: C9, 24 hours incubation
From the text: (§1) The MTT assay is a colorimetric method for measuring the activity of enzymes in living cells that reduces Thiazolyl blue tetrazolium bromide (MTT) to formazan dyes showing a purple color. In this embodiment, a colorimetric 3-(4.5-dimethylthiazol-2-yl)-2.5-diphenyltetrazodium bromide (MTT) viability assay was used to assess the in vitro cytotoxicity of oncolytic peptides.
(§2) The half inhibition concentration (IC50) is the concentration required by the oncolytic peptides to reach fifty percent inhibition. In one embodiment, the oncolytic peptides were used for IC50 test via MTT colorimetric assay.
(§3) All cancer cell lines were seeded in a 96-well plate with a concentration of 5000-8000 cells/100 μl/well and incubated for 24 hrs. After medium was removed, 100 μl fresh medium containing peptide (ranging from 50 μM to 0.8 μM) was added to the wells. Following 24 hours incubation, fresh medium with MTT (0.5 mg/ml) was replaced and incubated for 3 hours. After medium/MTT was removed, DMSO was added at 100 μl for dissolving the formazan crystal. Cell survival rate was calculated by measuring the absorbance at 540 nm using a Multi-labeled Microplate Reader (Sunrise™, TECAN).

[2] = test system: HepG2 Cancer Cells (Human hepatocellular carcinoma); assay: MTT cytotoxicity, HepG2; type: cell-based; conditions: HepG2, 24 hours incubation
From the text: as §1, §2, §3

Panc02 = assay: MTT cytotoxicity, Panc02; type: cell-based, murine; conditions: Panc02, 24 hours incubation
From the text: as §1, §2
Human lung cancer lines PC9 and A549 and murine pancreatic cancer cell line Panc02 were cultured in RPMI medium supplemented with 10% fetal bovine serum and antibiotic in this embodiment. Additionally, murine hepatoma cell line Hepa 1-6, murine melanoma cell line B16-F10, murine fibrosarcoma cell line MN-11, murine mammary cancer cell line E0771 and human diploid fibroblast (HFW) were cultured in DMEM medium supplemented with 10% fetal bovine serum and antibiotic. Cells were cultured in a humidified incubator containing 5% CO2 at 37° C.
as §3

B16-F10 melanoma = type: in vivo; conditions: B16-F10 tumor-bearing C57BL/6 mice
Experimental: FIGS. 1A-1B are schematic diagrams of B16-F10 melanoma experiments. The right flank of the mouse was administrated with SEQ ID NO:9, and the left flank of the mouse was untreated (tumor only) in FIG. 1A. […] (3×10^6B16-F10 cells per mouse/50 μl RPMI-1640). Palpable tumors (20-30 mm^3) were injected […] (IT.) with single doses of SEQ ID NO:9 dissolved in PBS (1.0 mg peptide/50 μl PBS) once a day for 5 consecutive days, and the vehicle control was saline only (0.9% NaCl).
(§4) Female C57BL/6 mice (4- to 6-week old) as allogeneic model animals were purchased from BioLASCO Taiwan Co., Ltd. and maintained in a specific pathogen-free and controlled environment. During the experiments, female mice, weighing 18.0-24.0 g each, were kept in groups of 4 to 6 animals per cage under climate-controlled conditions, with 12 h light/dark cycles and an ambient temperature. The mice were housed in an enriched individually ventilated cage (IVC) system with free access to standard rodent chow and water ad libitum. The animals were anesthetized during the experimental procedures with 2.5% isoflurane gas. The animals were monitored daily. All procedures were conducted according to the regulations of Laboratory Animal Care and Use Committee or Group Setup and Management and the law of Animal Protection.
Palpable tumors (for example, 20-30 mm^3 for B16-F10 tumor-bearing mice, 100 mm^3 for MN-11 tumor-bearing mice, 75 mm^3 for E0771 tumor-bearing mice) were injected (IT.) with single doses of SEQ ID NO:9 dissolved in PBS (1.0 mg peptide/50 μl PBS) once a day for 5 consecutive days, and the vehicle control was saline only (0.9% NaCl).
Tumor size was measured 3 times a week using a caliper, and the volume of tumors was calculated using the following formula: Tumor size (mm^3)=0.5×(width^2×length). The results were shown as volume±SEM. The survival rates of tumor-bearing mice were observed and recorded continuously until all animals died.
To evaluate the effect of SEQ ID NO:9 in vivo, the B16-F10 allogeneic model was used in C57BL/6 mice (FIGS. 1A-1B). […]

[3] = test system: NCI-N87 (Human gastric carcinoma); assay: MTT cytotoxicity, NCI-N87; type: cell-based; conditions: NCI-N87, 24 hours incubation
From the text: as §1, §2, §3

[4] = Peptide stability in serum; type: in vitro ADME; conditions: 25% (vol/vol) bovine calf serum
Experimental: Since this kind of peptide is highly toxic, the hope is that the peptide can be decomposed after inducing cancer cells to release danger-associated molecular patterns (DAMPs), and will not stay in the body for too long. After exposure to 25% (vol/vol) bovine calf serum, the residues of peptides were analyzed by liquid chromatography, and the stability at different time points was calculated.

E0771 breast cancer = type: in vivo; conditions: E0771 tumor-bearing C57BL/6 mice
Experimental: FIGS. 7A-7B are schematic diagrams of E0771 breast cancer experiments. FIG. 7A: The right flank of the mouse was administrated with SEQ ID NO:9. […] (2×10^5E0771 cells per mouse/50 μl RPMI-1640). Palpable tumors (75 mm^3) were injected (IT.) with single doses of SEQ ID NO:9 dissolved in PBS (1.0 mg peptide/50 μl PBS) once a day for 5 consecutive days, and the vehicle control was saline only (0.9% NaCl).
as §4, with “All procedures were conducted according to the regulations of Laboratory Animal Care and Use Committee or Group Setup and Management and the law of Animal Protection.” left out
Tumor size was measured 3 times a week using a caliper, and the volume of tumors was calculated using the following formula: Tumor size (mm^3)=0.5×(width^2×length). […] The survival rates of tumor-bearing mice were observed and recorded continuously until all animals died. […]

[5] = test system: OECM-1 (Human oral cancer cell); assay: MTT cytotoxicity, OECM-1; type: cell-based; conditions: OECM-1, 24 hours incubation
From the text: as §1, §2, §3

[6] = IT. 1.0 mg once a day for 5 days, vs untreated controls
[7] = IT. 1.0 mg peptide/50 μl PBS once a day for 5 consecutive days, vs saline control

Question: Which IC50 [1] does the source give for `CC(C)C[C@H](NC(=O)[C@H](Cc1ccc2ccccc2c1)NC(=O)[C@H](CCCCN)NC(=O)[C@H](CC(C)C)NC(=O)[C@H](Cc1c[nH]c2ccccc12)NC(=O)[C@H](CCCCN)NC(=O)[C@H](CCCNC(=N)N)NC(=O)[C@H](Cc1c[nH]c2ccccc12)NC(=O)[C@H](CCCNC(=N)N)NC(=O)[C@H](CCCNC(=N)N)NC(=O)[C@H](CCCCN)NC(=O)[C@H](CCCCN)NC(=O)[C@H](CCCCN)NC(=O)[C@@H](N)CCCCN)C(=O)N[C@@H](C)C(=O)N[C@@H](CCCCN)C(N)=O` [SEQ ID NO: 9, KKKK-RR-WRK-WLK-Nal-LA-K-NH2] (HELM PEPTIDE1{K.K.K.K.R.R.W.R.K.W.L.K.[O=C([C@H](Cc1ccc2ccccc2c1)N[*:1])[*:2]].L.A.K.[am]}$$$$V2.0; N-terminus assumed) here?
Answer: The IC50 was 6.43 µM.

Question: And the IC50 [2]?
Answer: Its IC50 is 9.81 µM.

Question: What about the IC50 (Panc02) of the same molecule?
Answer: Its IC50 is 2.66 µM.

Question: What about the “Survival (lifespan)” value (B16-F10 melanoma; [6]) of the same molecule?
Answer: Its value is “extended the lifespan”.

Question: And the “Tumor growth, treated tumor (right flank)” value (B16-F10 melanoma; [7])?
Answer: Its value is “significantly inhibited tumor growth”.

Question: What about the “Tumor growth, distal tumor (left side)” value (B16-F10 melanoma; untreated left flank, peptide IT. into right flank 1.0 mg once a day for 5 days) of the same molecule?
Answer: The value was “also inhibited”.

Question: And the IC50 [3]?
Answer: Its IC50 is 2.35 µM.

Question: What about the “Serum stability (residual peptide)” value ([4]; 0 hr) of the same molecule?
Answer: The value was 100.00%.

Question: What about the remaining at 0.5 h ([4]; 0.5 hr, read-out: Serum stability (residual peptide)) of the same molecule?
Answer: Its remaining at 0.5 h is 90.7%.

Question: What about the remaining at 1 h ([4]; 1 hr, read-out: Serum stability (residual peptide)) of the same molecule?
Answer: Its remaining at 1 h is 76.2%.

Question: What about the remaining at 2 h ([4]; 2 hr, read-out: Serum stability (residual peptide)) of the same molecule?
Answer: The remaining at 2 h was 77.9%.

Question: What about the remaining at 4 h ([4]; 4 hr, read-out: Serum stability (residual peptide)) of the same molecule?
Answer: The remaining at 4 h was 70.9%.

Question: And the remaining at 6 h ([4]; 6 hr, read-out: Serum stability (residual peptide))?
Answer: Its remaining at 6 h is 74.2%.

Question: And the remaining at 8 h ([4]; 8 hr, read-out: Serum stability (residual peptide))?
Answer: The remaining at 8 h was 55.8%.

Question: What about the “Survival (lifespan)” value (E0771 breast cancer; [6]) of the same molecule?
Answer: The value was “extended the lifespan”.

Question: And the “Tumor growth, treated tumor (right flank)” value (E0771 breast cancer; [7])?
Answer: Its value is “significantly inhibited tumor growth”.

Question: What about the IC50 [5] of the same molecule?
Answer: The IC50 was 6.36 µM.
